From paper PMC6415679 (ChemMedChem, 2018) come the findings set out here.

By IC50 is commonly meant the concentration at which inhibition is half-maximal.

Assay type in all cases: biochemical
Assay [1] has as its target ACT (Enzo) (Bordetella pertussis, UniProt P0DKX7). Particulars: read-out: IC50 ACT Enzo.
The target in assay [2] is ACT (Sigma) (Bordetella pertussis, UniProt P0DKX7). The note with it: read-out: IC50 ACT Sigma.
Assay [3] addresses edema factor (EF) (Bacillus anthracis, UniProt P40136). Particulars: read-out: IC50 EF.

SMILES strings stand for the structures.

Chain of edema factor (EF) (P40136 whole entry, looked up): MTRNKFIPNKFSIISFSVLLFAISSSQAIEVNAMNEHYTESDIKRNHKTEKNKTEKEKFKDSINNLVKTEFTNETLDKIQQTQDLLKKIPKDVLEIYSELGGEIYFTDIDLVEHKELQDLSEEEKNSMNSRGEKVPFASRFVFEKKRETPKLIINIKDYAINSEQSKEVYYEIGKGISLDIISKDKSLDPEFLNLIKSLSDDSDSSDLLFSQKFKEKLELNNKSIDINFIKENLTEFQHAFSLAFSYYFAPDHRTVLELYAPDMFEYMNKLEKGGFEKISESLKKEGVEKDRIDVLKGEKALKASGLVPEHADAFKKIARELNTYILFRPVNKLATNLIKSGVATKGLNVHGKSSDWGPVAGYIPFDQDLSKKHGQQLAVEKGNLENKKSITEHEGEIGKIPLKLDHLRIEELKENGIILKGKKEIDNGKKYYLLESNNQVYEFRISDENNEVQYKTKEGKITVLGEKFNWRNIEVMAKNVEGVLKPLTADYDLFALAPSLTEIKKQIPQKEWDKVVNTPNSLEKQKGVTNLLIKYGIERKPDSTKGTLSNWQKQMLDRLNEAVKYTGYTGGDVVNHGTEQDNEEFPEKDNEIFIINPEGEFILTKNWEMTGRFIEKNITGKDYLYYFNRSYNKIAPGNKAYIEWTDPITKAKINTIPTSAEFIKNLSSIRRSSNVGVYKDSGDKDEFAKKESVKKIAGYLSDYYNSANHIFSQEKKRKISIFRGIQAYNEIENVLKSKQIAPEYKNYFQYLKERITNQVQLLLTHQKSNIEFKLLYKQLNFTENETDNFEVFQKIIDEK
Chain of ACT (Enzo) (P0DKX7 whole entry, looked up): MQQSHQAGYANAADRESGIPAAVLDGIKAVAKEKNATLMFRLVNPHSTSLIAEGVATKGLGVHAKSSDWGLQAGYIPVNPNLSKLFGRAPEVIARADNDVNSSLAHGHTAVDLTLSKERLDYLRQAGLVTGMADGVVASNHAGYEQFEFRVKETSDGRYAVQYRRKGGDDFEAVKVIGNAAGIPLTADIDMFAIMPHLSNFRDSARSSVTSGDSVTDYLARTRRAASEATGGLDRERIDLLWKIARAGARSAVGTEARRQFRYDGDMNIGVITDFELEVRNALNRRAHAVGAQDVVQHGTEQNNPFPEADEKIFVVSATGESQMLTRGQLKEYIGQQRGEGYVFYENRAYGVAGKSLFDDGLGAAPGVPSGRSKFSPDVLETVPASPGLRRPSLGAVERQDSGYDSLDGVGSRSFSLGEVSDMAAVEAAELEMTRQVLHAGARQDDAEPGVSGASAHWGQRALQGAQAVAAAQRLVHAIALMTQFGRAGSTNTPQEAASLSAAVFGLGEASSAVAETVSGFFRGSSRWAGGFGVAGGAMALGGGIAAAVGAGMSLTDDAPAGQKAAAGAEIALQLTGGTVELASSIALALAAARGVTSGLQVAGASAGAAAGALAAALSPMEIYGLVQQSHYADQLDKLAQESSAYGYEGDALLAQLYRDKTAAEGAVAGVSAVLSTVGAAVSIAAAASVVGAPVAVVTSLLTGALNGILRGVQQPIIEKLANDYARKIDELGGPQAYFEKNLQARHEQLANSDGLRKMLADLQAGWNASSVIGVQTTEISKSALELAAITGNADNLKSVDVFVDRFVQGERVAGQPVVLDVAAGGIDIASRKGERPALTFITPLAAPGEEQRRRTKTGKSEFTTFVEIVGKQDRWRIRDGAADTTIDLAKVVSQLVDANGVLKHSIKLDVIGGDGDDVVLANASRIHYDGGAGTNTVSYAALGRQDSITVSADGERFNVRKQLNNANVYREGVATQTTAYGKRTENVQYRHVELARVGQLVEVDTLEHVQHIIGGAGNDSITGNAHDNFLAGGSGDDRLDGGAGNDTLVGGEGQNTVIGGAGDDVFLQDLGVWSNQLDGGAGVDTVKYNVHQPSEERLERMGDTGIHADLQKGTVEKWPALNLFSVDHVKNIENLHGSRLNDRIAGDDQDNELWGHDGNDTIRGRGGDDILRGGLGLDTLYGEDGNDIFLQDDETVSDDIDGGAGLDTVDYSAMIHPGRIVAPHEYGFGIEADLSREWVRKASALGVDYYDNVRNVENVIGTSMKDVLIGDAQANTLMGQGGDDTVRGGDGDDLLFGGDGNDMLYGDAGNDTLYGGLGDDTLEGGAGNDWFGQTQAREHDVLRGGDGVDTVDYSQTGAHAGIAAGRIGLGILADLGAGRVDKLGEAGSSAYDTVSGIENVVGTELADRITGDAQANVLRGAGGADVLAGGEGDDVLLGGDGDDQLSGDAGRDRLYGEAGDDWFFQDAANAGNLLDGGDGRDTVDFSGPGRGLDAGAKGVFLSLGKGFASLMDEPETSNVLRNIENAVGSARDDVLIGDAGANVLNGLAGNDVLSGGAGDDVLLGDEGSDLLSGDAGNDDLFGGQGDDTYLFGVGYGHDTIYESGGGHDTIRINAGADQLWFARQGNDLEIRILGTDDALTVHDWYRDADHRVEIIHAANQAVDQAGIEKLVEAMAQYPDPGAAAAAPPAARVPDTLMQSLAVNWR
Chain of ACT (Sigma) (P0DKX7 whole entry, looked up): as above

Regarding `Nc1ncnc2c(CCOCP(=O)(O)OP(=O)(O)OP(=O)(O)O)c[nH]c12` [Compound 41, (9-Deazaadenine-9-yl)ethoxy)methyl)phosphonic acid diphosphate], the half-inhibitory concentration (IC50) in assay [1] was 13.3 ± 2.3 nM; in assay [2], 9.32 ± 2.61 nM; in assay [3], 20.9 ± 1.8 nM.
